Publication PMC10223284, “Category-Based Toxicokinetic Evaluations of Data-Poor Per- and Polyfluoroalkyl Substances (PFAS) using Gas Chromatography Coupled with Mass Spectrometry” (Toxics, 2023)
Several values for one entry are separate records, joined by “and”; a condition that tells them apart may be missing. Equal values may be shown once. Read-outs that look alike come from different tables or passages of the source.

Legend:
human plasma [1] = experiment: Chemical stability in plasma over the UC assay time course (T5hr/T1hr)
Description: (§2) Three replicates were run per experiment, with 4NT included as a reference compound in each to evaluate assay performance. All PFAS and 4NT, prepared at a 3 mM working stock, were added to human plasma to achieve a final, thoroughly mixed assay concentration of 10 μM, incubated at 37 °C for 1 h with shaking. […] After UC, the aqueous fraction (AF; i.e., supernatant devoid of plasma proteins/lipoproteins/fatty acids) was collected and transferred to a new tube. The second aliquot maintained at 37 °C was collected (T5hr). At the relevant time points, each volume of sample was combined with 3 volumes of vigorously mixed ice-cold acetonitrile with the labeled IS and stored for 10 min at −20 °C prior to centrifugation at 12,000× g for 10 min at 4 °C. The supernatant was collected and stored at <−70 °C until quantitative analysis. […] Furthermore, chemical stability in plasma over the assay time course was assessed using the T1hr and T5hr samples.
(§3) Percent chemical remaining at the end of the UC assay (T5hr/T1hr) was used to remove unstable chemicals from further evaluation.

human plasma [2] = experiment: Ultracentrifugation (UC) plasma protein binding assay, fraction unbound in plasma (fup)
[3] = as above; conditions: both, human, plasma
human plasma [4] = conditions: for PPB_Stab_Fail: plasma
Description: as §2, §3

human plasma [5] = conditions: for Fup.Med / Fup.point: both, human, 5 h, 10 μM
[6] = Abiotic loss in negative controls of the hepatocyte clearance assay (cell-free media, metabolically inactivated hepatocytes); type: in vitro ADME; conditions: for Hep_Stab_Fail: 120 min
Outline: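 Test compound at 1 μM incubated at 37 °C with shaking in complete William's medium E, either cell-free or with metabolically inactivated hepatocytes, then quenched with ice-cold acetonitrile for quantitative analysis.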

in vitro [7] = conditions: both, human, plasma
Description: as §2, §3

human primary cells = conditions: cited from earlier work
[8] = tested on: pooled human cryopreserved primary hepatocyte suspensions; conditions: cited from earlier work
in vitro [9] = conditions: both, human, plasma; remark: listed apart in the source
[10] = In vitro-in vivo extrapolation (IVIVE) to Css and administered equivalent dose (AED); design: species or system human; conditions: for Clhep: IVIVE, hepatocyte Clint scaled to whole-liver clearance; for AED: administered equivalent dose from LOEC and Css; for Fub: fub=fup/(B:P), Fub set to 1 if needed; for CLint: scaled with HPGL 110 mill cells/g, Vl 1596 g
Outline: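 Measured plasma protein binding (fup) and hepatocyte Clint served as IVIVE inputs to estimate human steady-state plasma concentration (Css). fup was converted to blood unbound fraction using blood:plasma partitioning, and Clint was scaled to whole-liver clearance (L/h). AEDs were derived by combining Css with published in vitro lowest-observed effective concentrations.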

[11] = Hepatic metabolic stability (hepatocyte clearance) assay, substrate depletion; type: in vitro ADME, human; conditions: both sexes, human
Outline: (§1)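 Pooled 50-donor human cryopreserved hepatocytes (50,000 cells/100 μL) incubated with 1 μM compound at 37 °C with shaking. Parent loss quantified against internal standards over time to T240 in triplicate; T½ and Clint (μL/min/million cells) from ln concentration vs time, corrected for abiotic loss in cell-free and inactivated-hepatocyte controls.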

human plasma [12] = conditions: cited from earlier work
[13] = tested on: pooled human cryopreserved primary hepatocyte suspensions; experiment: Hepatic metabolic stability (hepatocyte clearance) assay, substrate depletion; type: in vitro ADME
Outline: as §1

[14] = BioSeek lowest-observed effect concentration used for AED
[15] = minimum lowest-observed effect concentration, BioSeek platform
[16] = Assuming 1 mg/kg/day dose rate, BW 70 kg
[17] = human steady-state plasma concentration, assuming 1 mg/kg/day dosage
[18] = legacy PFAS included for comparison

Compound: Cc1ccc([N+](=O)[O-])cc1 [4-Nitrotoluene, 4-nitrotoluene, reference compound]
- Mean Stability (T5hr/T1hr) (human plasma [1]; mean over all UC runs and replicates, human plasma): 0.816
- Fstable.Med (human plasma [1]; median fraction stable in plasma, UC assay Level4): 0.779
- Stability (T5hr/ T1hr), Run-specific Avg (human plasma [1]; run-specific average): 0.82 and 0.84 and 0.81 and 0.78
- Fup.Med (human plasma [2]; median fraction unbound in plasma, UC assay Level4): 0.0679
- Fup.point (human plasma [2]; point estimate of fraction unbound in plasma, UC assay Level4): 0.0612
- Fraction Unbound (fu), Run-specific Avg (human plasma [2]; run-specific average): 0.0534 and 0.08
- fraction unbound at 5 h, 10 μM ([3]; Fraction Unbound (fu), Run-specific Avg, run-specific average): 0.06
- fraction unbound at 5 h, 10 μM ([3]; Mean Fu (fraction unbound), mean over all UC runs and replicates, human plasma): 0.0581

Compound: C=CC(=O)OCC(F)(F)C(F)F [2,2,3,3-Tetrafluoropropyl acrylate]
- Unstable (human plasma [4]): Y
- Fstable.Med (human plasma [4]; both, human, 5 h, 10 μM): 0.000712
- PPB_Stab_Fail (human plasma [4]; both, human, 5 h, 10 μM): 1
- Uncertain (human plasma [5]): Y
- Fup.Med (human plasma [5]): 1.93E-08
- Fup.point (human plasma [5]): 0.234
- Hep_Stab_Fail ([6]; both, human, 1 μM): 1
- remaining at 5 h, 10 μM (in vitro [7]): 0%

Compound: NS(=O)(=O)C(F)(F)C(F)(F)C(F)(F)C(F)(F)C(F)(F)C(F)(F)C(F)(F)C(F)(F)F [Perfluorooctanesulfonamide, reference compound]
- LOEC (human primary cells; [14]): 2.00 µM
- LOEC (human primary cells; [15]): 2 µM
- In Vitro Clint [8]: 11.93 μL/min/10^6 cells
- fraction unbound at 5 h, 10 μM (in vitro [9]; Mean fu): 0.0039
- Css [10, 16]: 3.16 mg/L and 6.33 uM
- Clhep [10]: 0.882 L/h
- AED [10]: 0.3157 mg/kg/day
- Fub [10]: 0.007091
- Css [10, 17]: 6.33 µM
- CLint [10]: 2094431 µL/min
- hepatocyte CLint at 1 μM ([11]; hepatocytes, in vitro CLint): 11.9 µL/min/1e6 cells
- fup (human plasma [12]): 0.0039

Compound: O=S(=O)([O-])C(F)(F)C(F)(F)C(F)(F)C(F)(F)C(F)(F)C(F)(F)C(F)(F)C(F)(F)F.[K+] [Potassium perfluorooctanesulfonate, reference compound]
- LOEC (human primary cells; [14]): 7.00 µM
- LOEC (human primary cells; [15]): 7 µM
- In Vitro Clint [8, 18]: 1.81 μL/min/10^6 cells
- Css [10, 16]: 15.71 mg/L and 31.41 uM
- Clhep [10]: 0.138 L/h
- AED [10]: 0.2229 mg/kg/day
- Fub [10]: 0.007273
- Css [10, 17]: 31.41 µM
- CLint [10]: 317764 µL/min
- Mean fu (human plasma [2]; fraction unbound in human plasma, used for IVIVE): 0.004
- fup (human plasma [12]; [18]): 0.0040

Compound: OCC(F)(F)OC(F)(F)C(F)(F)OC(F)(F)C(F)(F)OC(F)(F)CO [1H,1H,11H,11H-Perfluorotetraethylene glycol]
- Fstable.Med (human plasma [4]; both, human, 5 h, 10 μM): 0.989
- Mean Stability (human plasma [4]; both, human, 5 h, 10 μM): 1.051
- Stability (T5hr/ T1hr), Run-specific Avg (human plasma [4]; both, human, 5 h, 10 μM): 0.998
- PPB_Stab_Fail (human plasma [4]; both, human, 5 h, 10 μM): 0
- LOEC (human primary cells; [14]): 2.00 µM
- LOEC (human primary cells; [15]): 2 µM
- Fup.Med (human plasma [5]): 0.0115
- Fup.point (human plasma [5]): 0.0127
- fraction unbound at 5 h, 10 μM (in vitro [9]; Fraction Unbound (fu), replicates A, B, C): 0.0147
- fraction unbound at 5 h, 10 μM (in vitro [9]; Mean Fu): 0.013
- fraction unbound at 5 h, 10 μM (in vitro [9]; Mean fu): 0.0128
- No Cells BkgdCl, Clearance ([6]; 1 μM): 4.374
- half-life at 1 μM ([6]; both sexes, human, hepatocytes): 245 min
- HT BkgdCl, Clearance ([6]; both, human, 1 μM): 5.666
- Hep_Stab_Fail ([6]; both, human, 1 μM): 0
- half-life at 1 μM ([6]; buffer): 317 min
- HT BkgdCl, Slope ([6]; heat treated hepatocytes control, 0 vs 240 min): -0.002833
- No Cells BkgdCl, Slope ([6]; no cells control, 0 vs 240 min): -0.002187
- Css [10, 16]: 0.61 mg/L and 1.50 uM
- Clhep [10]: 4.634 L/h
- AED [10]: 1.3364 mg/kg/day
- Fub [10]: 0.02327
- Css [10, 17]: 1.50 µM
- CLint [10]: 3498911 µL/min
- Concentration (nM), Time 240 min ([13]; both, human, 240 min, 1 μM): 88.3883 nM
- Linear Regression Results, Best-Fit Values, Slope ([13]; hepatocyte time course): -0.01215
- half-life at 1 μM ([11]; hepatocytes): 57 min
- hepatocyte CLint at 1 μM ([11]; hepatocytes, Bkgd-Sub Clearance (µL/min/106 hepatocytes)): 19.9 µL/min/1e6 cells
- hepatocyte CLint at 1 μM ([11]; hepatocytes, In Vitro Clint): 19.9 µL/min/1e6 cells
- hepatocyte CLint at 1 μM ([11]; hepatocytes, Linear Regression Results, Best-Fit Values, Clearance): 24.3 µL/min/1e6 cells
- hepatocyte CLint at 1 μM ([11]; hepatocytes, Unadj Clint): 24.3 µL/min/1e6 cells
- hepatocyte CLint at 1 μM ([11]; hepatocytes, Unadj in vitro Clint): 24.3 µL/min/1e6 cells
- hepatocyte CLint at 1 μM ([11]; hepatocytes, clearance rate in hepatocytes): 20 µL/min/1e6 cells
- hepatocyte CLint at 1 μM ([11]; s9, Clint.1.Med): 5.23 µL/min/1e6 cells
